Data on 43 compounds can be found in ChEMBL document CHEMBL5532655, “Discovery of (R)-4-(8-methoxy-2-methyl-1-(1-phenylethy)-1H-imidazo[4,5-c]quinnolin-7-yl)-3,5-dimethylisoxazole as a potent and selective BET inhibitor for treatment of acute myeloid leukemia (AML) guided by FEP calculation” (Eur J Med Chem, 2024).

A word on the IC50: it is the concentration that inhibits the measured activity by half. The low end stands for greater potency in that assay, the high end for weaker potency in that assay.

SMILES strings stand for the structures.

Holding throughout (assay): cells
One assay relates to Jurkat. Particulars: Homo sapiens, 48 h.
Another assay has as its system MV4-11. Particulars: Homo sapiens, MV4-11, 48 h.
For a further assay, the system named is MM1.S. Particulars: Homo sapiens, 48 h.
In a further assay the test system is MOLM-13. The note with it: Homo sapiens, MOLM-13, 48 h.

Description for Jurkat: Antiproliferative activity against human Jurkat cells assessed as inhibition of cell growth incubated for 48 hrs by MTT assay
Description for MM1.S: Antiproliferative activity against human MM1.S cells assessed as inhibition of cell growth incubated for 48 hrs by MTT assay
Description for MOLM-13: Antiproliferative activity against human MOLM-13 cells assessed as inhibition of cell growth incubated for 48 hrs by MTT assay
Description for MV4-11: Antiproliferative activity against human MV4-11 cells assessed as inhibition of cell growth incubated for 48 hrs by MTT assay

Take `COc1ccc(-n2c(C)nc3cnc4cc(-c5ccc(O)cc5)c(OC)cc4c32)cc1`: the concentration for half-maximal inhibition (IC50) with Jurkat was found to be 15 µM; in the assay on MV4-11 it was 4.96 µM; in the assay on MM1.S it was 2.44 µM; with MOLM-13, 18.3 µM.

For `COc1cc2c(cc1-c1cnn(C)c1)ncc1nc(C)n([C@@H](C)c3ccccc3)c12`, the IC50 in the assay on Jurkat is 2.14 µM; in the assay with MV4-11 it was 0.62 µM; in the assay on MM1.S, 11.5 µM; with MOLM-13 it was more than 20 µM.

For `COc1ccc(-c2cc3ncc4nc(C)n(-c5ccc(OC)cc5)c4c3cc2OC)cc1`, the IC50 is more than 20 µM in the assay with Jurkat, 4.41 µM in the assay with MV4-11, 12.5 µM in the assay on MM1.S and 15.6 µM in the assay on MOLM-13.

`COc1ccc(-n2c(C)nc3cnc4cc(-c5cc(C)cc(C)c5)c(OC)cc4c32)cc1`: the IC50 in the assay with Jurkat is more than 20 µM; with MV4-11 it was more than 20 µM; in the assay on MM1.S, 12 µM; in the assay with MOLM-13 it was more than 20 µM.

In the case of `COc1ccc(-n2c(C)nc3cnc4cc(-c5cnccc5OC)c(OC)cc4c32)cc1`, the IC50 is more than 20 µM with Jurkat, more than 20 µM in the assay with MV4-11, 5.67 µM in the assay on MM1.S and more than 20 µM in the assay on MOLM-13.

On to `COc1ccc(-n2c(C)nc3cnc4cc(-c5cnc6[nH]ccc6c5)c(OC)cc4c32)cc1`, for which the IC50 with Jurkat is 4.71 µM; in the assay on MV4-11, 18.6 µM; in the assay on MM1.S it was 13 µM; with MOLM-13, more than 20 µM.

As for `COc1cc2c(cc1-c1c(C)noc1C)ncc1nc(C)n([C@@H](C)c3ccccc3)c12`, the IC50 in the assay with Jurkat was found to be 16.6 µM; in the assay with MV4-11, 2.02 µM; in the assay on MM1.S, 11.2 µM; in the assay with MOLM-13, 12.5 µM.

As to `COc1ccc(-n2c(C)nc3cnc4cc(-c5cnc(N)nc5)c(OC)cc4c32)cc1`, the IC50 in the assay on Jurkat, with MV4-11, in the assay with MM1.S and in the assay with MOLM-13 was more than 20 µM in each case.

Consider `COc1cc2c(cc1-c1ccc(N)cc1)ncc1nc(C)n([C@@H](C)c3ccccc3)c12`, for which the IC50 in the assay with Jurkat was 11.1 µM; in the assay on MV4-11, 3.25 µM; in the assay on MM1.S, 4.04 µM; in the assay on MOLM-13 it was 7.16 µM.

As for `COc1ccc(-n2c(C)nc3cnc4cc(-c5ccc(N)cc5)c(OC)cc4c32)cc1`, the IC50 in the assay on Jurkat was more than 20 µM; with MV4-11, more than 20 µM; in the assay with MM1.S, 9.8 µM; in the assay with MOLM-13, more than 20 µM.

Take `COc1ccc(-n2c(C)nc3cnc4cc(-c5ccc6nc[nH]c6c5)c(OC)cc4c32)cc1`: the IC50 with Jurkat was 17.2 µM; in the assay with MV4-11, 5.33 µM; in the assay with MM1.S it was 5.8 µM; with MOLM-13, more than 20 µM.

Regarding `COc1cc2c(cc1-c1cc(C)cc(C)c1)ncc1nc(C)n([C@@H](C)c3ccccc3)c12`, the IC50 in the assay on Jurkat was more than 20 µM; with MV4-11 it was 6.24 µM; in the assay with MM1.S it was 5.92 µM; in the assay on MOLM-13 it was more than 20 µM.

Consider `COc1cc2c(cc1-c1cnn(C)c1)ncc1nc(C)n([C@H](C)c3ccccc3)c12`, for which the IC50 with Jurkat is more than 20 µM; with MV4-11, 6.83 µM; in the assay on MM1.S, 6.9 µM; with MOLM-13, more than 20 µM.

Regarding `COc1cc2c(cc1-c1ccc(O)cc1)ncc1nc(C)n([C@@H](C)c3ccccc3)c12`, the IC50 was more than 20 µM in the assay with Jurkat, 2.25 µM in the assay on MV4-11, 5.79 µM in the assay with MM1.S and 8.42 µM in the assay on MOLM-13.

For `COc1cc2c(cc1-c1c(C)noc1C)ncc1nc(C)n(C3CCOCC3)c12`, the IC50 was more than 20 µM in the assay with Jurkat, 1.02 µM in the assay with MV4-11, 1.85 µM in the assay on MM1.S and 5.15 µM in the assay with MOLM-13.

Take `COc1ccc(-n2c(C)nc3cnc4cc(-c5ccc(C#N)cc5)c(OC)cc4c32)cc1`: the IC50 with Jurkat was more than 20 µM; with MV4-11 it was 5.39 µM; with MM1.S, 7.9 µM; with MOLM-13 it was more than 20 µM.

For the compound `COc1ccc(-n2c(C)nc3cnc4cc(-c5ccc(OC)c(CO)c5)c(OC)cc4c32)cc1`, the IC50 is more than 20 µM in the assay on Jurkat, 17.9 µM with MV4-11, 11 µM in the assay with MM1.S and more than 20 µM in the assay on MOLM-13.

Regarding `COc1cc2c(cc1-c1ccc(N)nc1)ncc1nc(C)n([C@@H](C)c3ccccc3)c12`, the IC50 turned out to be 15.2 µM in the assay with Jurkat, 1.4 µM with MV4-11, 5.69 µM in the assay on MM1.S and 4.74 µM in the assay with MOLM-13.

`COc1ccc(-n2c(C)nc3cnc4cc(-c5ccc(N)nc5)c(OC)cc4c32)cc1`: the concentration for half-maximal inhibition (IC50) amounted to 11.2 µM in the assay on Jurkat, 9.21 µM with MV4-11, 5.78 µM with MM1.S and 11.3 µM with MOLM-13.

Regarding `COc1cc2c(cc1-c1ccc(C(C)=O)cc1)ncc1nc(C)n([C@@H](C)c3ccccc3)c12`, the IC50 was found to be 12.9 µM in the assay on Jurkat, 12.5 µM with MV4-11, 11.6 µM in the assay with MM1.S and 4.73 µM in the assay on MOLM-13.

Regarding `COc1cc2c(cc1-c1c(C)n[nH]c1C)ncc1nc(C)n([C@H](C)c3ccccn3)c12`, the IC50 in the assay with Jurkat was more than 20 µM; in the assay with MV4-11, 10.9 µM; in the assay on MM1.S, more than 20 µM; with MOLM-13 it was 0.44 µM.

Turning to `COc1ccc(-n2c(C)nc3cnc4cc(-c5ccc(C(F)(F)F)cc5)c(OC)cc4c32)cc1`, the IC50 in the assay with Jurkat was more than 20 µM; with MV4-11, 5.64 µM; in the assay with MM1.S it was more than 20 µM; in the assay with MOLM-13, more than 20 µM.

In the case of `COc1cc2c(cc1-c1ccc(C#N)cc1)ncc1nc(C)n([C@@H](C)c3ccccc3)c12`, the IC50 with Jurkat is 4.53 µM; in the assay with MV4-11, 5 µM; in the assay with MM1.S, 9.09 µM; in the assay with MOLM-13 it was 10.1 µM.

For `COc1ccc(-n2c(C)nc3cnc4cc(-c5ccc(C(C)=O)cc5)c(OC)cc4c32)cc1`, the IC50 was more than 20 µM with Jurkat, 11.1 µM in the assay on MV4-11, 12.4 µM in the assay with MM1.S and more than 20 µM in the assay with MOLM-13.

Take `COc1cc2c(cc1-c1ccc(C(F)(F)F)cc1)ncc1nc(C)n([C@@H](C)c3ccccc3)c12`: the IC50 with Jurkat was 16.4 µM; in the assay on MV4-11 it was 5 µM; in the assay on MM1.S it was 11.9 µM; in the assay with MOLM-13, 0.91 µM.

For the compound `COc1ccc(-n2c(C)nc3cnc4cc(-c5ccc(C)cc5)c(OC)cc4c32)cc1`, the IC50 in the assay with Jurkat was more than 20 µM; in the assay with MV4-11, more than 20 µM; in the assay with MM1.S it was 6.34 µM; in the assay with MOLM-13, more than 20 µM.

As for `COc1ccc(-n2c(C)nc3cnc4cc(-c5c(C)n[nH]c5C)c(OC)cc4c32)cc1`, the IC50 in the assay with Jurkat is more than 20 µM; in the assay on MV4-11, 10.6 µM; in the assay with MM1.S, 3.12 µM; with MOLM-13 it was more than 20 µM.

Turning to `COc1ccc(-c2cc3ncc4nc(C)n([C@@H](C)c5ccccc5)c4c3cc2OC)cc1CO`, the IC50 in the assay with Jurkat is more than 20 µM; in the assay on MV4-11, 18 µM; in the assay on MM1.S, 13.5 µM; with MOLM-13, more than 20 µM.

For the compound `COc1cc2c(cc1-c1ccc3nc[nH]c3c1)ncc1nc(C)n([C@@H](C)c3ccccc3)c12`, the IC50 was more than 20 µM with Jurkat, 10.4 µM in the assay on MV4-11, 8.69 µM in the assay on MM1.S and 19.1 µM with MOLM-13.

For `COc1cc2c(cc1-c1cnc(N)nc1)ncc1nc(C)n([C@@H](C)c3ccccc3)c12`, the IC50 is more than 20 µM in the assay with Jurkat, more than 20 µM in the assay with MV4-11, 9.23 µM in the assay on MM1.S and more than 20 µM in the assay with MOLM-13.

As to `COc1ccc(-n2c(C)nc3cnc4cc(-c5ccc(F)cc5)c(OC)cc4c32)cc1`, the IC50 in the assay with Jurkat was more than 20 µM; with MV4-11, 11 µM; with MM1.S, more than 20 µM; in the assay with MOLM-13 it was more than 20 µM.

For `COc1cc2c(cc1-c1ccc(C)cc1)ncc1nc(C)n([C@@H](C)c3ccccc3)c12`, the IC50 in the assay on Jurkat is more than 20 µM; with MV4-11 it was 8.3 µM; with MM1.S it was 6.02 µM; in the assay with MOLM-13, 4.99 µM.

As for `COc1cc2c(cc1-c1c(C)noc1C)ncc1nc(C)n(-c3ccc(C#N)cc3)c12`, the IC50 in the assay with Jurkat was more than 20 µM; in the assay on MV4-11, 4.63 µM; with MM1.S it was 2.34 µM; with MOLM-13 it was 12.8 µM.

In the case of `COc1cc2c(cc1-c1ccc3[nH]ccc3c1)ncc1nc(C)n([C@@H](C)c3ccccc3)c12`, the IC50 with Jurkat was more than 20 µM; in the assay on MV4-11 it was 2.21 µM; in the assay on MM1.S it was 13.7 µM; in the assay with MOLM-13, 9.7 µM.

On to `COc1cc2c(cc1-c1cnn(C)c1)ncc1nc(C)n([C@H](C)c3ccccn3)c12`, for which the IC50 in the assay on Jurkat is 9.87 µM; in the assay on MV4-11, 2.6 µM; in the assay on MM1.S, 5.84 µM; in the assay on MOLM-13 it was 3.55 µM.

With `COc1ccc(-n2c(C)nc3cnc4cc(-c5c(C)noc5C)c(OC)cc4c32)cc1`, the IC50 was more than 20 µM in the assay with Jurkat, 1.22 µM in the assay on MV4-11, 9.3 µM with MM1.S and 11.6 µM with MOLM-13.

For the compound `COc1ccc(-n2c(C)nc3cnc4cc(-c5cnn(C)c5)c(OC)cc4c32)cc1`, the IC50 with Jurkat was more than 20 µM; in the assay with MV4-11 it was 9.71 µM; with MM1.S, 3.23 µM; in the assay on MOLM-13, more than 20 µM.

Turning to `COc1cc2c(cc1-c1c(C)n[nH]c1C)ncc1nc(C)n([C@@H](C)c3ccccc3)c12`, the IC50 was 16.5 µM in the assay with Jurkat, 0.53 µM in the assay on MV4-11, 8.92 µM in the assay with MM1.S and 13.1 µM in the assay on MOLM-13.

For `COc1cc2c(cc1-c1cnc3[nH]ccc3c1)ncc1nc(C)n(C(C)c3ccccc3)c12` (configuration not stated), the IC50 in the assay on Jurkat came out at 15.6 µM; in the assay on MV4-11 it was 6.13 µM; with MM1.S, 10.1 µM; in the assay with MOLM-13 it was 6.85 µM.

With `COc1ccc(-c2cc3ncc4nc(C)n([C@@H](C)c5ccccc5)c4c3cc2OC)cc1`, the IC50 with Jurkat was found to be 5.46 µM; in the assay on MV4-11 it was 13.1 µM; with MM1.S it was 4.84 µM; in the assay with MOLM-13, 4.12 µM.

Turning to `COc1ccncc1-c1cc2ncc3nc(C)n([C@@H](C)c4ccccc4)c3c2cc1OC`, the IC50 in the assay on Jurkat is more than 20 µM; in the assay with MV4-11, more than 20 µM; in the assay with MM1.S it was 7.4 µM; with MOLM-13 it was 10.9 µM.

For the compound `COc1ccc(-n2c(C)nc3cnc4cc(-c5ccc6[nH]ccc6c5)c(OC)cc4c32)cc1`, the IC50 is 15.1 µM in the assay on Jurkat, 9.93 µM with MV4-11, 9.8 µM in the assay on MM1.S and more than 20 µM in the assay on MOLM-13.

For `COc1cc2c(cc1-c1c(C)noc1C)ncc1nc(C)n(-c3ccc(CC#N)cc3)c12`, the IC50 in the assay with Jurkat was more than 20 µM; with MV4-11 it was 1.05 µM; in the assay on MM1.S, 7.06 µM; in the assay on MOLM-13, 10.1 µM.
